Reference: US20200207989A1, “FLUORESCENT PROBE FOR ALDH3A1 DETECTION” (The University of Tokyo, priority 2016, published 2020)

B1: ALDH1A1 (Homo sapiens) (protein)
chain: MSSSGTPDLPVLLTDLKIQYTKIFINNEWHDSVSGKKFPVFNPATEEELCQVEEGDKEDVDKAVKAARQAFQIGSPWRTMDASERGRLLYKLADLIERDRLLLATMESMNGGKLYSNAYLNDLAGCIKTLRYCAGWADKIQGRTIPIDGNFFTYTRHEPIGVCGQIIPWNFPLVMLIWKIGPALSCGNTVVVKPAEQTPLTALHVASLIKEAGFPPGVVNIVPGYGPTAGAAISSHMDIDKVAFTGSTEVGKLIKEAAGKSNLKRVTLELGGKSPCIVLADADLDNAVEFAHHGVFYHQGQCCIAASRIFVEESIYDEFVRRSVERAKKYILGNPLTPGVTQGPQIDKEQYDKILDLIESGKKEGAKLECGGGPWGNKGYFVQPTVFSNVTDEMRIAKEEIFGPVQQIMKFKSLDDVIKRANNTFYGLSAGVFTKDIDKAITISSALQAGTVWVNCYGVVSAQCPFGGFKMSGNGRELGEYGFHEYTEVKTVTVKISQKNS
notes: purchased

Columns and labels:
[1] = HPLC (LC/MS) retention time as measure of hydrophilicity / membrane permeability; type: physicochemical; details: C18 column; 20% B 2.5 min, 20%-->100% B 5 min, 500 μL/min; neutral conditions; mean±SD of three tests
Experimental: In the present invention, it is preferable to use the retention time on an HPLC chromatogram as the measure of hydrophilicity.
HPLC conditions: taking solvent A to be 0.01 M ammonium formate/water and solvent B to be 80% acetonitrile 0.01 M ammonium formate/water, chromatography is carried out under conditions of 20% solvent B for 2.5 minutes followed by a 5-minute linear gradient of solvent B from 20% to 100% (flow rate 500 μL/min).
A C18 column (HP 3 μm, inner diameter: 2.1 mm, length: 150 mm, GL Science), for example, can be used suitably as the column.
The water solubility was verified by LC/MS under neutral conditions to compare the membrane permeability of the five probes produced above and ALDEFLUOR. The reaction was stopped after advancing the reaction to the point that each probe was present as both a carboxylic acid form and an aldehyde form using a suitable isoform and concentration of ALDH, and analysis was conducted by LC/MS (Agilent 1200/6130 quadrupole LC/MS system). A C18 column (HP 3 μm, inner diameter: 2.1 mm, length: 150 mm, GL Science) was used as the column. HPLC chromatograms were carried out by 20% B for 2.5 minutes followed by a five-minute linear gradient (flow rate: 500 μL/min) from 20% to 100% B, taking solvent A to be 0.01 M ammonium formate/water and solvent B to be 80% acetonitrile 0.01 M ammonium formate/water. The probe containing BODIPY was detected by the absorbance at a wavelength of 504 nm and the probe containing TG at a wavelength of 495 nm, and m/z of the MS spectrum at each peak was confirmed to agree with the expected m/z. Three independent tests were run, and the mean±SD was calculated. […] Given that imaging of probe 1 was not successful, there was thought to be a threshold at which the membrane permeability changes rapidly between this 6.741 minutes and 7.098 minutes (band in FIG. 2).

[2] = target: T1, ALDH1A1 (Homo sapiens, UniProt P00352); assay: Kinetic characteristics (Michaelis-Menten Km, Kcat) with ALDH1A1; type: biochemical; details: five minutes at 37° C., Tris buffer pH 7.5
T1 construct: purchased
T1 sequence (P00352 1-501): B1 chain
Experimental: (§1) Human recombinant ALDH1A1/1A3/3A1 was purchased, and 100 mM of KCL, 2 mM of DTT, 1 mM of NAD(P), 10-100 nM of each ALDH, and 10-80 μM of each compound were mixed in Tris buffer (100 mM, pH 7.5), reacted for 30 minutes at 37° C., an equal amount of acetonitrile added, and the reaction stopped. The reaction solution was analyzed by UPLC/MS/MS (Waters). The UPCL chromatogram was carried out over five minutes at a flow rate of 800 μL/min by a linear gradient from 5% acetonitrile 0.01 M ammonium formate/water to 95% acetonitrile 0.01 M ammonium formate/water. An aldehyde-form and carboxylic acid-form probe were detected by the absorbance at a wavelength of 504 nm, and m/z of the MS spectrum at each peak was confirmed to agree with the expected m/z.
(§2) For the reaction, 100 mM of KCL, 2 mM of DTT, 1 mM of NAD(P), and five to six concentrations within the range of 10-100 nM of each ALDH and 0.1-80 μM of each probe were selected, mixed in Tris buffer (100 mM, pH 7.5), and reacted for five minutes at 37° C.; an equal amount of acetonitrile was added, and the reaction was stopped. Detection of the aldehyde-form/carboxylic acid-form probes was carried out using the same method as described above by UPLC/MS/MS. Km and Kcat were calculated by fitting the reaction rate at each probe concentration obtained to the Michaelis-Menten equation. A Kaleida Graph ver. 4.1 (Hulinks, Inc.) was used in fitting.

[3] = target: T2, ALDH3A1 (Homo sapiens, UniProt P30838); assay: Reactivity of probes to recombinant ALDH3A1 (UPLC/MS/MS); type: biochemical; details: 10-100 nM ALDH, 10-80 μM compound, Tris buffer pH 7.5, 30 minutes at 37° C., ◯/X not defined by a legend
T2 construct: purchased
T2 sequence (P30838 1-453): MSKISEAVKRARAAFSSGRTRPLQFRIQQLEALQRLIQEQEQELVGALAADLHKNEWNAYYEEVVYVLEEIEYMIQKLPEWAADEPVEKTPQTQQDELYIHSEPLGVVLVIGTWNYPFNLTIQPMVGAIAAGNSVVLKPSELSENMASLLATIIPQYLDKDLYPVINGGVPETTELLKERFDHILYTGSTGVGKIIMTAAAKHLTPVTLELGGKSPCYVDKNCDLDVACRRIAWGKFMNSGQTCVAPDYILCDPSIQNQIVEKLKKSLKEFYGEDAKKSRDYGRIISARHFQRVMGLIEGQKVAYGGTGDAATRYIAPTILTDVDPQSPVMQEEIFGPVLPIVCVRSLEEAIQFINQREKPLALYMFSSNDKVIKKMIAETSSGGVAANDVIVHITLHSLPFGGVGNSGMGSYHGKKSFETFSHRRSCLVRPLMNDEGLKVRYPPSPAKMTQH
Experimental: as §1, with “formate/water.” for “formate/water. An aldehyde-form and carboxylic acid-form probe were detected by the absorbance at a wavelength of 504 nm, and m/z of the MS spectrum at each peak was confirmed to agree with the expected m/z.”

[4] = tested on: A549 cells
Source text: An esophageal squamous cell carcinoma cell line (OE21 cell line) which are cells that express a high level of ALDH3A1 was used as the cells.

[5] = target: T1, ALDH1A1; assay: Reactivity of probes to recombinant ALDH1A1 (UPLC/MS/MS detection of aldehyde and carboxylic acid forms); type: biochemical; details: 10-100 nM ALDH, 10-80 μM compound, Tris buffer pH 7.5, 30 minutes at 37° C., ◯/X not defined by a legend
Experimental: as §1

[6] = target: T3, ALDH1A3 (Homo sapiens, UniProt P47895); assay: Reactivity of probes to recombinant ALDH1A3 (UPLC/MS/MS); type: biochemical; details: 10-100 nM ALDH, 10-80 μM compound, Tris buffer pH 7.5, 30 minutes at 37° C.; ◯/X not defined by a legend
T3 construct: purchased
T3 sequence (P47895 1-512): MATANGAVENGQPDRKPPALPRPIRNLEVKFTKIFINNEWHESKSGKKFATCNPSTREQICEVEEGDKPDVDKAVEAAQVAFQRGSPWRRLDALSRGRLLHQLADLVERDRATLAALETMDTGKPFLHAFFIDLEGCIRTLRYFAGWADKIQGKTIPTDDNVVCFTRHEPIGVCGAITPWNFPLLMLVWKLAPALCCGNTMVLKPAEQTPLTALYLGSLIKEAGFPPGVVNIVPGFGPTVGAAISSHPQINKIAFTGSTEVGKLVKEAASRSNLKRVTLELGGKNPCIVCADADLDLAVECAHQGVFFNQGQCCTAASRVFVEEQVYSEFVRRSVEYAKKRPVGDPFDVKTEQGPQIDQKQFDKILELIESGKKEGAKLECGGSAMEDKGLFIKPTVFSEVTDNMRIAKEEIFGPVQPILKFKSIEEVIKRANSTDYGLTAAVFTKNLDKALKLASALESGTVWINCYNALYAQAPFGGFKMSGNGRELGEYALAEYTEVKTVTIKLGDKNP
Experimental: as §1, with “formate/water.” for “formate/water. An aldehyde-form and carboxylic acid-form probe were detected by the absorbance at a wavelength of 504 nm, and m/z of the MS spectrum at each peak was confirmed to agree with the expected m/z.”

[7] = tested on: OE21 cell line; assay: Cell imaging of OE21 cells against CB7 negative control; type: cell-based; details: probe 5: 40 μM, 90 minutes at 37° C., CB7 10 μM control
Experimental: 40 μM of probe 5 was added to culture medium (RPMI 1640, 10% FBS, 15 mM HEPES, phenol red-free). After culturing for 90 minutes at 37° C., the cells were washed using a chilled medium and examined under a confocal microscope. A sample with a specific ALDH3A1 inhibitor (1-[(4-fluorophenyl)sulfonyl]-2-methyl-1H-benzimidazole, CB7, 10 μM) added served as a negative control. Excitation was provided by a 488 nm laser, and observation was carried out at wavelengths of […] in detection.

[8] = target: T2, ALDH3A1; assay: Kinetic characteristics (Michaelis-Menten Km, Kcat) with ALDH3A1; type: biochemical
Experimental: as §1, §2
The Kcat ratio (Kcat of ALDH3A1/Kcat of ALDH1A1) was calculated for probe 1, probe 3, and probe 5 as an indicator of ALDH1A1/ALDH3A1 specificity because the probe reaction rate at the actual probe use concentration is believed to be close to Vmax since Km is relatively small (Table 5).

[9] = substrate: CCN(CCOCCNC(=O)c1ccc(-c2c3ccc(=O)cc-3oc3cc(O)ccc23)c(C)c1)c1ccc(C=O)cc1; assay: Kinetic characteristics (Michaelis-Menten Km, Kcat) with ALDH1A1; type: biochemical, Human; details: other: five minutes at 37° C., Tris buffer pH 7.5
Experimental: as §1, §2

[10] = five minutes at 37° C., Tris buffer pH 7.5

| Molecule | Retention Time, Aldehyde form [1] [min] | Retention Time, carboxylate (carboxylic acid form) [1] [min] | Kcat ALDH1A1 [2] [s⁻¹] | Km [2] [µM] | Reactivity to ALDH3A1 [3] | Brightness of cells in imaging compared to negative control [4] | Reactivity to ALDH1A1 [5] | Reactivity to ALDH1A1 ([5]; listed as compound 2) | Reactivity to ALDH1A3 [6] | Brightness of cells in imaging compared to negative control (CB7) [7] | Kcat ALDH3A1 [8, 10] [s⁻¹] | Km [8, 10] [µM] | Kcat ratio (Kcat of ALDH3A1/Kcat of ALDH1A1) ([8]; indicator of ALDH1A1/ALDH3A1 specificity) | Reactivity to ALDH3A1 ([3]; listed as compound 3) | Reactivity to ALDH1A1 ([5]; listed as compound 3) | Km [9] [µM] | kcat [9] [s⁻¹] |
| --- | --- | --- | --- | --- | --- | --- | --- | --- | --- | --- | --- | --- | --- | --- | --- | --- | --- |
| N-(4-formylphenyl)-3-(1,3-dimethyl-4,4-difluoro-4-bora-3a,4a-diaza-s-indacen-5-yl)-propionamide [Probe 2] | 9.330 ± 0.002 | 7.284 ± 0.047 | 3.4 ± 0.415 | 5.76 ± 2.39 | presented reactivity only with ALDH1A1 | no evident difference in brightness was found in comparison to the negative control | ◯ | presented reactivity only with ALDH1A1 | presented reactivity only with ALDH1A1 |  |  |  |  |  |  |  |  |
| 2-(N-ethyl-N-(4-formylphenyl)amino)ethyl-3-(1,3-dimethyl-4,4-difluoro-4-bora-3a,4a-diaza-s-indacen-5-yl)-propionamide [Probe 3] | 9.153 ± 0.010 | 7.920 ± 0.052 | 0.101 ± 0.00333 | 0.17 ± 0.03 | ◯ |  | ◯ |  |  | no evident difference in brightness could be found in comparison to the negative control | 0.203 ± 0.0033 | 0.87 ± 0.07 | 2 | reacted with ALDH1A1 and ALDH3A1 | reacted with ALDH1A1 and ALDH3A1 |  |  |
| B1 |  |  |  |  |  |  |  |  |  |  |  |  |  |  |  | 0.26 ± 0.05 | 0.017 ± 0.00067 |
